The numbers were not newly measured in US10144908B2, “Liquid soap having enhanced antibacterial activity” (Conopco, Inc., priority 2013, dated 2018), which cites them from elsewhere.

For the series the following is noted: in water at 25° C.

As to `O=C([O-])CC(O)(CC(=O)[O-])C(=O)[O-].[Ag+].[Ag+].[Ag+]` [Silver citrate], the Ksp is 2.5e-16 mol/L.
